Several values for one entry are separate records, joined by “and”; a condition that tells them apart may be missing. Equal entries are not always repeated. Where two headings read alike, the source gives them in different places.
What was measured:
FTPfHT = molecular target: T1, FTPfHT (Plasmodium falciparum, UniProt Q7KWJ5); assay: 2-DG uptake by HEK293 cells overexpressing FLAG-tagged PfHT (FTPfHT); assay type: cell-based; set-up: the 38–40 kDa band represents full length PfHT; expressed in transfected cells; host or cells: HEK293-FLIP (HEK293); details: for remaining activity at 0.001 µM: concentration 0.001 µM, Expt 1-3
T1 sequence (Q7KWJ5 1-504): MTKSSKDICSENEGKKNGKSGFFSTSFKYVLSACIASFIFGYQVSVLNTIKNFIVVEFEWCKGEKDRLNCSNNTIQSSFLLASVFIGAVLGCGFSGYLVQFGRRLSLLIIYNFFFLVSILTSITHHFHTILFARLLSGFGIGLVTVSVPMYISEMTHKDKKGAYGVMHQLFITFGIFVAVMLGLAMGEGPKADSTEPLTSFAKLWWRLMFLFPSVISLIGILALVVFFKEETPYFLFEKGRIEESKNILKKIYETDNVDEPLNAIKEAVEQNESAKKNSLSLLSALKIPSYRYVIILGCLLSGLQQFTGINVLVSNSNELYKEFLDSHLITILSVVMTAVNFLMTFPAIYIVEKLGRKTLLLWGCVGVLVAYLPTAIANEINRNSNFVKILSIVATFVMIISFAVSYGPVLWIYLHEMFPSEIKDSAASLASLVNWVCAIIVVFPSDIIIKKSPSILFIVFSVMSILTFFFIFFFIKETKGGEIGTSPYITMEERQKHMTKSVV
Source text: Generation of HEK293 cells overexpressing PfHT and human GLUTs 1–4 were described elsewhere. Briefly, HEK293 cells were transfected with pcDNA3.1 FLII12Pglu-7006 (Addgene), containing the fluorescence resonance energy transfer (FRET) glucose sensor (HEK293-FLIP) and PfHT, human GLUT1 (hGLUT1), hGLUT2, hGLUT3, hGLUT4, hGLUT5 or hGLUT8 using Optifect (Life Technologies) according to manufacturer’s specifications. To increase retention of GLUT8 at the plasma membrane, the dileucine sorting signal E^7E^8XXXLL was modified to R^7R^8XXXLL as described in [17]. Stable transfectants were selected for G418 and hygromycin resistance to select for FRET sensor and hexose transporter, respectively. HEK293-FLIP cells were also used to generate cells stably transfected with FLAG-tagged PfHT (FTPfHT). FLAG tag ([…]) followed by a triple glycine linker and a tobacco etch virus (TEV) protease site (ENLYFQS) followed by a triple glycine linker was added to the N-terminus of PfHT via PCR [18] using Phusion Hot Start II High-Fidelity DNA Polymerase (Fisher Scientific). Single clones were selected by comparing their abilities to transport glucose as assayed via FRET and radiolabeled hexose uptake. In all cell lines, except for HEK293 cells overexpressing hGLUT1 and hGLUT5, native hGLUT1 was knocked down using shRNA as described elsewhere. Transcript levels of the individual GLUTs expressed in each cell line are as described in [13, 15] and in S1 Fig.
Glucose uptake by P. falciparum was performed essentially as described. P. falciparum strain 3D7 was cultured in 100 mm tissue culture dishes (Techno Plastic Products) in a 2% suspension of human erythrocytes and RPMI 1640 medium until reaching > 7.5% parasitemia. Cells were pelleted via centrifugation and resuspended in RPMI 1640 medium. To determine the uptake of radiolabeled glucose into the parasite, parasites were isolated from infected erythrocytes by permeablization with saponin (0.05 w/v), followed by centrifugation, aspiration of supernatant and washing of the pellet 3X with saline solution (135 mM NaCl, 2 mM KCl, 25 mM HEPES, 0.2 mM glucose and 1 mM MgCl2; pH 7.1) to remove cellular debris. WU-1 or DMSO vehicle were added to 100 μl parasites (resuspended in saline) 5 min prior to the addition of 100 μl [^14C]2-DOG (0.2- μCi/ml final concentration). 2-DG uptake was stopped after 2 min by layering the entire reaction over 300 μl of an oil mixture (5:4 mix of dibutyl phthalate / dinonyl phthalate) in Eppendorf tubes and centrifuged at 15,850 × g for 2 mins. The ratio of the estimated intracellular concentration of radiolabel relative to the extracellular concentration were calculated as described. Uptake of radiolabeled hexose into HEK293 cells was measured in glucose-free HBSS as described previously. Briefly, cells were plated at 400,000 cells/well overnight at 37°C in 24-well plates pre-treated with PEI. After 30-min incubation at 37°C in glucose-free HBSS in the presence of vehicle or increasing concentrations of compound, 2-DG uptake was measured in glucose-free HBSS for 4 min at 37°C. Cultures were washed in ice-cold 1X PBS and lysed in 0.1% Triton X-100 in 1X PBS. Radiolabeled hexose uptake was determined by liquid scintillation counting (Ultima Gold, Thermo Fisher) and normalized to total protein per well. Uptake data are plotted as percent uptake relative to vehicle-treated cells. Kinetic analyses were performed using the indicated concentrations of substrate and WU-1, with quenching of uptake after 1 min incubation. Incubation times had been previously determined as being in the linear range of time-dependent radiolabeled hexose uptake (2 min for 2-DG uptake into freed parasites; 2 and 4 min for D-Frc and 2-DG uptake HEK cell lines, respectively). Data were fit by least squares nonlinear regression analysis using GraphPad Prism 6.0 software.

PfHT = molecular target: T2, PfHT (Plasmodium falciparum, UniProt Q7KWJ5); assay: ATB-BMPA photolabel binding to PfHT liposomes; set-up: expressed in transfected cells
T2 sequence (Q7KWJ5 1-504): T1 sequence (Q7KWJ5 1-504)
Method: WU-1 inhibitor was added to PfHT liposomes for 10 min at room temperature. Samples (final volume, 110 μl) were then incubated for 10 min at room temperature with biotinylated ATB-BMPA (50 μM final concentration) and then placed on ice prior to UV irradiation. Reactions were transferred to a 24-well low protein retention culture dish (Costar, Corning, NY) and then irradiated at room temperature 5 cm from a Green Spot UV lamp for 1 min (30 sec of light followed by 30 sec of darkness followed by 30 sec of light). Unbound ATB-BMPA was removed using a 0.5 ml Zeba Spin Column (Thermo Scientific, Rockford, IL). Samples were analyzed by immunoblot analysis using a fluorescently labeled streptavidin (LI-COR Biosciences, Lincoln, NE). The amount of PfHT protein in each sample was quantified by SDS-PAGE stained with Blue BANDIT protein stain using a BSA standard curve. The streptavidin signal was then normalized to the amount of PfHT protein.

[1] = FTPfHT, 2-DG Uptake, average of Expt 1-3, read-out: AVE IC50
[2] = FTPfHT, 2-DG Uptake, single experiments Expt 1-3, read-out: IC50
[3] = HEK293, 4 min, FTPfHT, read-out: 2-DG Uptake AVE
[4] = IC50 for inhibition of 2-DG uptake, HEK293 cells overexpressing FTPfHT

`C=C1[C@@H](C)[C@H]2[C@H](Cc3ccccc3)NC(=O)[C@]23OC(=O)/C=C/[C@H](O)CCC[C@@H](C)C/C=C/[C@H]3[C@@H]1O` [CB, cytochalasin B] was tested. Which IC50 (FTPfHT; [1]) did it give?
The IC50 was 29.9 µM.

And the IC50 (FTPfHT; [2])?
The IC50 was 26.6 µM and 30.5 µM and 32.6 µM.

And the remaining activity at 0.001 µM (FTPfHT; [3])?
Its remaining activity at 0.001 µM is 100%.

And the remaining activity at 0.3906 µM (FTPfHT; HEK293, 4 min, FTPfHT, concentration 0.3906 µM, read-out: 2-DG Uptake AVE)?
Its remaining activity at 0.3906 µM is 97.8%.

And the remaining activity at 0.7812 µM (FTPfHT; HEK293, 4 min, FTPfHT, concentration 0.7812 µM, read-out: 2-DG Uptake AVE)?
The remaining activity at 0.7812 µM was 93.2%.

What about the remaining activity at 1.56 µM (FTPfHT; HEK293, 4 min, FTPfHT, concentration 1.56 µM, read-out: 2-DG Uptake AVE) of the same compound?
Its remaining activity at 1.56 µM is 95.4%.

What about the remaining activity at 3.125 µM (FTPfHT; HEK293, 4 min, FTPfHT, concentration 3.125 µM, read-out: 2-DG Uptake AVE) of the same compound?
Its remaining activity at 3.125 µM is 90%.

What about the remaining activity at 6.25 µM (FTPfHT; HEK293, 4 min, FTPfHT, concentration 6.25 µM, read-out: 2-DG Uptake AVE) of the same compound?
Its remaining activity at 6.25 µM is 81.9%.

What about the remaining activity at 12.5 µM (FTPfHT; HEK293, 4 min, FTPfHT, concentration 12.5 µM, read-out: 2-DG Uptake AVE) of the same compound?
Its remaining activity at 12.5 µM is 72.3%.

What about the remaining activity at 25 µM (FTPfHT; HEK293, 4 min, FTPfHT, concentration 25 µM, read-out: 2-DG Uptake AVE) of the same compound?
Its remaining activity at 25 µM is 56%.

And the remaining activity at 50 µM (FTPfHT; HEK293, 4 min, FTPfHT, concentration 50 µM, read-out: 2-DG Uptake AVE)?
The remaining activity at 50 µM was 44.6%.

What about the remaining activity at 100 µM (FTPfHT; HEK293, 4 min, FTPfHT, concentration 100 µM, read-out: 2-DG Uptake AVE) of the same compound?
The remaining activity at 100 µM was 32.2%.

What about the remaining activity at 200 µM (FTPfHT; HEK293, 4 min, FTPfHT, concentration 200 µM, read-out: 2-DG Uptake AVE) of the same compound?
The remaining activity at 200 µM was 22.7%.

And the remaining activity at 400 µM (FTPfHT; HEK293, 4 min, FTPfHT, concentration 400 µM, read-out: 2-DG Uptake AVE)?
Its remaining activity at 400 µM is 12.9%.

And the IC50 (FTPfHT; [4])?
Its IC50 is 29.9 ± 1.8 µM.

With `Cc1ccc(S(=O)(=O)CCNC(=O)c2c(-c3c(Cl)cccc3Cl)noc2C)cc1` [WU-1, 3-(2,6-dichlorophenyl)-5-methyl-N-[2-(4-methylbenzenesulfonyl)ethyl]-1,2-oxazole-4-carboxamide] as the compound, how does the “decrease of biotinylated ATB-BMPA photolabel binding to PfHT” value (PfHT; 10 μM WU-1, PfHT liposomes) read?
The value was ~ 60%.

What about the “ATB-BMPA labeling, Strep signal” value (PfHT; 10µM WU-1, individual samples) of the same compound?
The value was 15.08 and 15.68 and 15.48.

What about the “ATB-BMPA labeling, Strep/Protein” value (PfHT; 10µM WU-1, individual samples) of the same compound?
The value was 1.91 and 1.96 and 1.99.

What about the “ATB-BMPA labeling, Strep/Protein normalized to 100% Control” value (PfHT; 10µM WU-1, individual samples) of the same compound?
The value was 40.83 and 41.46.

And the “ATB-BMPA labeling, normalized Ave” value (PfHT; 10µM WU-1, mean of 3)?
The value was 40.69.

What about the remaining activity at 10 µM (PfHT; read-out: ATB-BMPA labeling, Strep/Protein normalized to 100% Control, 10µM WU-1, individual samples) of the same compound?
Its remaining activity at 10 µM is 39.8%.

What about the IC50 (FTPfHT; [1]) of the same compound?
Its IC50 is 19.5 µM.

What about the IC50 (FTPfHT; [2]) of the same compound?
Its IC50 is 19.2 µM and 18.9 µM and 20.5 µM.

What about the remaining activity at 0.001 µM (FTPfHT; [3]) of the same compound?
The remaining activity at 0.001 µM was 100%.

And the remaining activity at 0.313 µM (FTPfHT; HEK293, 4 min, FTPfHT, concentration 0.313 µM, read-out: 2-DG Uptake AVE)?
Its remaining activity at 0.313 µM is 95.9%.

And the remaining activity at 0.625 µM (FTPfHT; HEK293, 4 min, FTPfHT, concentration 0.625 µM, read-out: 2-DG Uptake AVE)?
Its remaining activity at 0.625 µM is 92.1%.

What about the remaining activity at 1.25 µM (FTPfHT; HEK293, 4 min, FTPfHT, concentration 1.250 µM, read-out: 2-DG Uptake AVE) of the same compound?
The remaining activity at 1.25 µM was 81.9%.

What about the remaining activity at 2.5 µM (FTPfHT; HEK293, 4 min, FTPfHT, concentration 2.500 µM, read-out: 2-DG Uptake AVE) of the same compound?
The remaining activity at 2.5 µM was 84.9%.

What about the remaining activity at 5 µM (FTPfHT; HEK293, 4 min, FTPfHT, concentration 5.0 µM, read-out: 2-DG Uptake AVE) of the same compound?
The remaining activity at 5 µM was 80.6%.

And the remaining activity at 10 µM (FTPfHT; HEK293, 4 min, FTPfHT, concentration 10.0 µM, read-out: 2-DG Uptake AVE)?
Its remaining activity at 10 µM is 64.8%.

What about the remaining activity at 20 µM (FTPfHT; HEK293, 4 min, FTPfHT, concentration 20 µM, read-out: 2-DG Uptake AVE) of the same compound?
The remaining activity at 20 µM was 52.4%.

And the remaining activity at 40 µM (FTPfHT; HEK293, 4 min, FTPfHT, concentration 40 µM, read-out: 2-DG Uptake AVE)?
Its remaining activity at 40 µM is 41.1%.

What about the remaining activity at 80 µM (FTPfHT; HEK293, 4 min, FTPfHT, concentration 80 µM, read-out: 2-DG Uptake AVE) of the same compound?
The remaining activity at 80 µM was 29.3%.

What about the remaining activity at 160 µM (FTPfHT; HEK293, 4 min, FTPfHT, concentration 160 µM, read-out: 2-DG Uptake AVE) of the same compound?
Its remaining activity at 160 µM is 19.9%.

What about the remaining activity at 225 µM (FTPfHT; HEK293, 4 min, FTPfHT, concentration 225 µM, read-out: 2-DG Uptake AVE) of the same compound?
The remaining activity at 225 µM was 17.1%.

What about the IC50 (FTPfHT; [4]) of the same compound?
Its IC50 is 19.5 ± 0.5 µM.

From paper PMC6508677, “Identification of druggable small molecule antagonists of the Plasmodium falciparum hexose transporter PfHT and assessment of ligand access to the glucose permeation pathway via FLAG-mediated protein engineering” (PLoS ONE, 2019)
